Our source for the pest or weed control and inhibition of growth values is patent US20200022370A1, “MICROBIOCIDAL OXADIAZOLE DERIVATIVES” (SYNGENTA PARTICIPATIONS AG, priority 2016, published 2020).

Like-named read-outs stand apart in the source and are kept apart here.

Experiment [1] relates to Puccinia recondita f. Sp. Tritici. Nature of the experiment: Puccinia recondita f. sp. tritici / wheat / leaf disc preventative (brown rust). It counts as in vivo. The note with it: foliar, read-out: disease control. How it is done:
Leaf disks or leaf segments of various plant species are cut from plants grown in a greenhouse. The cut leaf disks or segments are placed in multiwell plates (24-well format) onto water agar. The leaf disks are sprayed with a test solution before (preventative) or after (curative) inoculation. Compounds to be tested are prepared as DMSO solutions (max. 10 mg/ml) which are diluted to the appropriate concentration with 0.025% Tween20 just before spraying. The inoculated leaf disks or segments are incubated under defined conditions (temperature, relative humidity, light, etc.) according to the respective test system. A single evaluation of disease level is carried out 3 to 14 days after inoculation, depending on the pathosystem. Percent disease control relative to the untreated check leaf disks or segments is then calculated.
Example 1: Fungicidal Activity Against Puccinia recondita f. Sp. Tritici/Wheat/Leaf Disc Preventative (Brown Rust)
Wheat leaf segments cv. Kanzler were placed on agar in multiwell plates (24-well format) and sprayed with the Formulated test compound diluted in water. The leaf disks were inoculated with a spore suspension of the fungus 1 day after application. The inoculated leaf segments were incubated at 19° C. and 75% relative humidity (rh) under a light regime of 12 hours light/12 hours darkness in a climate cabinet and the activity of a compound was assessed as percent disease control compared to untreated when an appropriate level of disease damage appears in untreated check leaf segments (7 to 9 days after application).
The following compounds at 200 ppm in the applied Formulation give at least 80% disease control in this test when compared to untreated control leaf disks under the same conditions, which show extensive disease development.

Experiment [2] concerns Glomerella lacenarium (Colletotrichum lacenarium). Briefly: Glomerella lacenarium (Colletotrichum lacenarium) liquid culture / cucumber / preventative (anthracnose). Format: cell-based. Particulars: read-out: disease control. How it is done: Mycelia fragments or conidia suspensions of a fungus prepared either freshly from liquid cultures of the fungus or from cryogenic storage, are directly mixed into nutrient broth. DMSO solutions of the test compound (max. 10 mg/ml) are diluted with 0.025% Tween20 by a factor of 50 and 10 μl of this solution is pipetted into a microtiter plate (96-well format). The nutrient broth containing the fungal spores/mycelia fragments is then added to give an end concentration of the tested compound. The test plates are incubated in the dark at 24° C. and 96% relative humidity. The inhibition of fungal growth is determined photometrically after 2 to 7 days, depending on the pathosystem, and percent antifungal activity relative to the untreated check is calculated.
Example 4: Fungicidal Activity Against Glomerella lacenarium (Colletotrichum lacenarium) Liquid Culture/Cucumber/Preventative (Anthracnose)
Conidia of the fungus from cryogenic storage are directly mixed into nutrient broth (PDB-potato dextrose broth). After placing a (DMSO) solution of test compound into a microtiter plate (96-well format), the nutrient broth containing the fungal spores is added. The test plates are incubated at 24° C. and the inhibition of growth is measured photometrically 3 to 4 days after application.
The following compounds at 20 ppm in the applied Formulation give at least 80% disease control in this test when compared to untreated control under the same conditions, which show extensive disease development.

The mark [3] stands for this setting: 20 ppm, liquid culture in PDB, 24° C., inhibition of growth measured photometrically 3 to 4 days after application, vs untreated.
[4] abbreviates: 200 ppm in the applied formulation, wheat leaf segments cv. Kanzler, inoculated 1 day after application, vs untreated, 7 to 9 days after application.

As for `O=C(CF)Nc1ccc(-c2noc(C(F)(F)F)n2)cc1` [Compound 1.19, 2-fluoro-N-[4-[5-(trifluoromethyl)-1,2,4-oxadiazol-3-yl]phenyl]acetamide], the pest or weed control at 200 ppm in experiment [1] was at least 80%. In addition, the inhibition of growth at 20 ppm in experiment [2] was at least 80%.

Turning to `CC(Oc1ccccc1)C(=O)Nc1ccc(-c2noc(C(F)(F)F)n2)cc1` (stereo not shown) [Compound 1.79, 2-phenoxy-N-[4-[5-(trifluoromethyl)-1,2,4-oxadiazol-3-yl]phenyl] propanamide], the inhibition of growth at 20 ppm in experiment [2] (setting [3]) was at least 80%.

Take `N#Cc1cc(F)c(C(=O)Nc2ccc(-c3noc(C(F)(F)F)n3)nc2)c(F)c1` [Compound 1.49, 4-cyano-2,6-difluoro-N-[6-[5-(trifluoromethyl)-1,2,4-oxadiazol-3-yl]-3-pyridyl]benzamide]: in experiment [1] (setting [4]), the pest or weed control at 200 ppm was at least 80%.

On to `CC1(C)CC1C(=O)Nc1ccc(-c2noc(C(F)(F)F)n2)cc1` (stereo not shown) [Compound 2.12, 2,2-dimethyl-N-[4-[5-(trifluoromethyl)-1,2,4-oxadiazol-3-yl]phenyl] cyclopropane-carboxamide], for which the inhibition of growth at 20 ppm in experiment [2] (setting [3]) was at least 80%.

For the molecule `O=C(CCc1cccnc1)Nc1ccc(-c2noc(C(F)(F)F)n2)cc1` [Compound 1.105, 3-(3-pyridyl)-N-[4-[5-(trifluoromethyl)-1,2,4-oxadiazol-3-yl]phenyl] propanamide], in experiment [1] (setting [4]), the pest or weed control at 200 ppm was at least 80%. For the same molecule, the inhibition of growth at 20 ppm in experiment [2] (setting [3]) is at least 80%.

As to `C=CCON(C)C(=O)Nc1ccc(-c2noc(C(F)(F)F)n2)cc1` [Compound 2.21, 1-allyloxy-1-methyl-3-[4-[5-(trifluoromethyl)-1,2,4-oxadiazol-3-yl]phenyl]urea], the inhibition of growth at 20 ppm in experiment [2] (setting [3]) is at least 80%.

In the case of `O=C(Cc1cccs1)Nc1ccc(-c2noc(C(F)(F)F)n2)cc1` [Compound 1.89, 2-(2-thienyl)-N-[4-[5-(trifluoromethyl)-1,2,4-oxadiazol-3-yl]phenyl]acetamide], the pest or weed control at 200 ppm in experiment [1] (setting [4]) was at least 80%. Moreover, in experiment [2] (setting [3]), the inhibition of growth at 20 ppm is at least 80%.

Consider `CC(=O)Nc1ccc(CC(=O)Nc2ccc(-c3noc(C(F)(F)F)n3)cc2)cc1` [Compound 1.26, 2-(4-acetamidophenyl)-N-[4-[5-(trifluoromethyl)-1,2,4-oxadiazol-3-yl]phenyl]acetamide], for which the pest or weed control at 200 ppm in experiment [1] (setting [4]) is at least 80%.

With `O=C(Cc1cccnc1)Nc1ccc(-c2noc(C(F)(F)F)n2)cc1` [Compound 1.84, 2-(3-pyridyl)-N-[4-[5-(trifluoromethyl)-1,2,4-oxadiazol-3-yl]phenyl]acetamide], the pest or weed control at 200 ppm in experiment [1] (setting [4]) is at least 80%. Also, in experiment [2] (setting [3]), the inhibition of growth at 20 ppm was at least 80%.

On to `O=C(Cc1ccccc1F)Nc1ccc(-c2noc(C(F)(F)F)n2)cc1` [Compound 1.100, 2-(2-fluorophenyl)-N-[4-[5-(trifluoromethyl)-1,2,4-oxadiazol-3-yl]phenyl]acetamide], for which the pest or weed control at 200 ppm in experiment [1] (setting [4]) was at least 80%. For the same molecule, the inhibition of growth at 20 ppm in experiment [2] (setting [3]) was at least 80%.

Regarding `O=C(CCCC=C(F)F)Nc1ccc(-c2noc(C(F)(F)F)n2)cc1` [Compound 1.98, 6,6-difluoro-N-[4-[5-(trifluoromethyl)-1,2,4-oxadiazol-3-yl]phenyl]hex-5-enamide], the pest or weed control at 200 ppm in experiment [1] (setting [4]) is at least 80%. The inhibition of growth at 20 ppm in experiment [2] (setting [3]) is at least 80%.

`CN(C(=O)c1ccccc1Cl)c1ccc(-c2noc(C(F)(F)F)n2)cc1` [Compound 1.134, 2-chloro-N-methyl-N-[4-[5-(trifluoromethyl)-1,2,4-oxadiazol-3-yl]phenyl]benzamide]: the inhibition of growth at 20 ppm in experiment [2] (setting [3]) is at least 80%.

`CC(C)(C)OC(=O)NC(C(=O)Nc1ccc(-c2noc(C(F)(F)F)n2)cc1)c1ccccc1` (stereo not shown) [Compound 1.18, tert-butyl N-[2-oxo-1-phenyl-2-[4-[5-(trifluoromethyl)-1,2,4-oxadiazol-3-yl]anilino]ethyl] carbamate]: the pest or weed control at 200 ppm in experiment [1] (setting [4]) is at least 80%.

Turning to `CN(C(=O)CC1CC1)c1ccc(-c2noc(C(F)(F)F)n2)cc1` [Compound 2.26, 2-cyclopropyl-N-methyl-N-[4-[5-(trifluoromethyl)-1,2,4-oxadiazol-3-yl]phenyl]acetamide], the inhibition of growth at 20 ppm in experiment [2] (setting [3]) is at least 80%.

`O=C(Cc1cc(F)cc(F)c1)Nc1ccc(-c2noc(C(F)(F)F)n2)cc1` [Compound 1.117, 2-(3,5-difluorophenyl)-N-[4-[5-(trifluoromethyl)-1,2,4-oxadiazol-3-yl]phenyl]acetamide]: in experiment [2] (setting [3]), the inhibition of growth at 20 ppm is at least 80%.

In the case of `O=C(Nc1ccc(-c2noc(C(F)(F)F)n2)cc1)C1CSC1` [Compound 1.82, N-[4-[5-(trifluoromethyl)-1,2,4-oxadiazol-3-yl]phenyl]thietane-3-carboxamide], the pest or weed control at 200 ppm in experiment [1] (setting [4]) was at least 80%. The inhibition of growth at 20 ppm in experiment [2] (setting [3]) is at least 80%.

Regarding `O=C(CC1CC1)Nc1ccc(-c2noc(C(F)(F)F)n2)cc1` [Compound 1.80, 2-cyclopropyl-N-[4-[5-(trifluoromethyl)-1,2,4-oxadiazol-3-yl]phenyl]acetamide], the pest or weed control at 200 ppm in experiment [1] (setting [4]) was at least 80%. In addition, the inhibition of growth at 20 ppm in experiment [2] (setting [3]) is at least 80%.

For `O=C(Cc1ccc(C(F)(F)F)nc1)Nc1ccc(-c2noc(C(F)(F)F)n2)cc1` [Compound 1.108, N-[4-[5-(trifluoromethyl)-1,2,4-oxadiazol-3-yl]phenyl]-2-[6-(trifluoromethyl)-3-pyridyl]acetamide], in experiment [2] (setting [3]), the inhibition of growth at 20 ppm is at least 80%.

Consider `O=C(Nc1ccc(-c2noc(C(F)(F)F)n2)cc1)C1OCCO1` [Compound 1.113, N-[4-[5-(trifluoromethyl)-1,2,4-oxadiazol-3-yl]phenyl]-1,3-dioxolane-2-carboxamide], for which the pest or weed control at 200 ppm in experiment [1] (setting [4]) is at least 80%. Moreover, the inhibition of growth at 20 ppm in experiment [2] (setting [3]) was at least 80%.

As to `CC=CC=CC(=O)NC1(C(=O)Nc2ccc(-c3noc(C(F)(F)F)n3)cc2)CCCC(C)C1` (stereo not shown) [Compound 1.21, 1-(hexa-2,4-dienoylamino)-3-methyl-N-[4-[5-(trifluoromethyl)-1,2,4-oxadiazol-3-yl]phenyl]cyclo-hexanecarboxamide], in experiment [1] (setting [4]), the pest or weed control at 200 ppm is at least 80%.

On to `CC(C)CCC(=O)Nc1ccc(-c2noc(C(F)(F)F)n2)cc1` [Compound 1.110, 4-methyl-N-[4-[5-(trifluoromethyl)-1,2,4-oxadiazol-3-yl]phenyl] pentanamide], for which the inhibition of growth at 20 ppm in experiment [2] (setting [3]) is at least 80%.

For `O=C(Cc1ccc2c(c1)OCO2)Nc1ccc(-c2noc(C(F)(F)F)n2)nc1` [Compound 1.48, 2-(1,3-benzodioxol-5-yl)-N-[6-[5-(trifluoromethyl)-1,2,4-oxadiazol-3-yl]-3-pyridyl]acetamide], the inhibition of growth at 20 ppm in experiment [2] (setting [3]) was at least 80%.

Regarding `C=CCCCCC(=O)Nc1ccc(-c2noc(C(F)(F)F)n2)cc1` [Compound 1.93, N-[4-[5-(trifluoromethyl)-1,2,4-oxadiazol-3-yl]phenyl]hept-6-enamide], the inhibition of growth at 20 ppm in experiment [2] (setting [3]) was at least 80%.

With `O=C(Cc1cccc(C(F)(F)F)n1)Nc1ccc(-c2noc(C(F)(F)F)n2)cc1` [Compound 1.114, N-[4-[5-(trifluoromethyl)-1,2,4-oxadiazol-3-yl]phenyl]-2-[6-(trifluoromethyl)-2-pyridyl]acetamide], in experiment [2] (setting [3]), the inhibition of growth at 20 ppm was at least 80%.

On to `CON(C)C(=O)Nc1ccc(-c2noc(C(F)(F)F)n2)nc1` [Compound 1.65, 1-methoxy-1-methyl-3-[6-[5-(trifluoromethyl)-1,2,4-oxadiazol-3-yl]-3-pyridyl]urea], for which the inhibition of growth at 20 ppm in experiment [2] (setting [3]) is at least 80%.

In the case of `O=C(Cc1ccc(OC(F)(F)F)cc1)Nc1ccc(-c2noc(C(F)(F)F)n2)cc1` [Compound 1.119, 2-[4-(trifluoromethoxy)phenyl]-N-[4-[5-(trifluoromethyl)-1,2,4-oxadiazol-3-yl]phenyl]acetamide], in experiment [2] (setting [3]), the inhibition of growth at 20 ppm is at least 80%.

Take `O=C(NCC(F)(F)F)Nc1ccc(-c2noc(C(F)(F)F)n2)cc1` [Compound 2.22, 1-(2,2,2-trifluoroethyl)-3-[4-[5-(trifluoromethyl)-1,2,4-oxadiazol-3-yl]phenyl]urea]: the inhibition of growth at 20 ppm in experiment [2] (setting [3]) was at least 80%.

As for `CCOCC(=O)Nc1ccc(-c2noc(C(F)(F)F)n2)cc1` [Compound 2.10, 2-ethoxy-N-[4-[5-(trifluoromethyl)-1,2,4-oxadiazol-3-yl]phenyl] acetamide], in experiment [2] (setting [3]), the inhibition of growth at 20 ppm was at least 80%.
